Patent US20170290890A1, “STIMULATION OF OVARIAN FOLLICLE DEVELOPMENT AND OOCYTE MATURATION” (The Board of Trustees of the Leland Stanford Junior …, priority 2014, published 2017)

Key:
[1] = tested on: mTOR signaling pathway; experiment: Immunoblotting of mTOR pathway protein phosphorylation in ovaries; format: cell-based, mice; details: day 10 mouse ovaries, 3 h, 10 μM, FIG. 1A
Method: Ovaries from day 10 mice were incubated for 3 h with 10 μM of MHY1485 before immunoblotting analyses. […] Activated mTORC1 complex phosphorylates Thr389 in ribosomal S6 kinase (S6K), thereby activating it to subsequently phosphorylate ribosomal protein S6 (rpS6) and promote ribosome biogenesis. We further monitored S6K1 and rpS6 phosphorylation in ovarian tissues.
Ovaries from mice at day 10 of age were treated with MHY1485 (Millipore, Bedford, Mass.) for 3 h and proteins were extracted using M-PER Mammalian Protein Extraction Reagent (Thermo, Rockford, Ill.) containing a protease inhibitor cocktail (Thermo). Protein concentrations in supernatants were determined by the bicinchoninic acid method (Pierce, Rockford, Ill., USA). Equal amounts of protein lysates were loaded on 4-12% NuPAGE Bis-Tris gels (Invitrogen, Carlsbad, Calif.) in MOPS buffer and transferred to […] pore nitrocellulose membranes (LI-COR, Lincoln, Nebr., USA). First antibodies were from Cell Signaling (Beverly, Mass.) and rabbit secondary antibodies from LI-COR. Images were generated using a LI-COR Odyssey infrared imager.

[2] = tested on: Ovaries from day 10 mice; experiment: Ovarian explant culture and follicle counting; format: cell-based; details: explant culture 4 days
Method: We treated ovaries from day 10 mice with increasing doses of MHY1485 using an explant culture model.
Ovaries from day 10 mice were placed on culture plate inserts (Millipore) and cultured in 400 μl of DMEM/F12 containing 0.1% BSA, 0.1% Albumax II, insulin-transferrin-selenium, 0.05 mg/ml L-ascorbic acid and penicillin-streptomycin under a membrane insert to cover ovaries with a thin layer of medium. Ovaries were treated with 1-10 μM of MHY1485 and cultured for 4 days with medium change after 2 days of culture. At the end of culture, ovaries were fixed with formalin before weighing. Some ovaries were paraffin-embedded and cut into continuous sections. Sections were stained with hematoxylin and eosin for follicle counting, and only follicles with clearly stained oocyte nucleus were counted to avoid recounting of the same follicle.

[3] = tested on: Ovaries from day 10 mice; experiment: Ovarian tissue grafting (in vitro treatment then allo-transplantation under kidney capsules); format: in vivo; details: 2 days in vitro treatment
Method: (§1) Using this model, we further treated the hosts with eCG for 2 days to promote the growth of preovulatory follicles, followed by an injection of hCG to promote oocyte maturation. At 12 h after hCG injection, mature oocytes were punctured from preovulatory follicles for in vitro fertilization.
At the end of transplantation, grafts were collected for weight determination and histological analysis. For some animals, ovaries from day 10 mice were treated with IVA drugs (PTEN inhibitor: (bpv(hopic) at 30 μM for the first day and an activator for phosphoinositol-3-kinase 740YP at 150 μg/mL for two days) before grafting.

[4] = tested on: oocytes; experiment: In vitro fertilization and embryo transfer of oocytes from pretreated grafts; format: in vivo, mice
Method: as §1
Ovaries from B6D2F1 mice at 10 days of age were treated with 10 μM MHY1485 for 2 days, followed by transplantation into kidney capsules of hosts for 5 days. At day 5 after transplantation, animals were treated with 10 IU equine chorionic gonadotropin (eCG) for 48 h, followed by an injection of 10 IU human chorionic gonadotropin (hCG). Twelve hour later, grafts were collected and oocytes were retrieved in the M2 medium (Cytospring, Mountain View, Calif.). As controls, B6D2F1 mice at day 25 of age were treated with 5 IU eCG for 48 h, followed by 5 IU hCG before oocyte retrieval. For in vitro fertilization, sperm from B6D2F1 male mice were collected into human tubal fluid medium (Cytospring) and pre-incubated for 1 h at 37 C. Oocytes were then fertilized with sperm (2-3×10^5/ml) for 6 h, and inseminated oocytes were transferred into KSOM medium (Cytospring) for development into blastocysts. For embryo transfer, two-cell embryos were transferred into oviducts of pseudopregnant, 8-week-old CD1 nice pre-mated with vasectomized males of the same strain.

[5] = molecular target: PTEN (Homo sapiens, UniProt P60484); details: cited from earlier work
[6] = tested on: PTP; details: cited from earlier work
[7] = grafts 5 days with FSH, FIG. 2C

PTEN, sequence (P60484 whole entry): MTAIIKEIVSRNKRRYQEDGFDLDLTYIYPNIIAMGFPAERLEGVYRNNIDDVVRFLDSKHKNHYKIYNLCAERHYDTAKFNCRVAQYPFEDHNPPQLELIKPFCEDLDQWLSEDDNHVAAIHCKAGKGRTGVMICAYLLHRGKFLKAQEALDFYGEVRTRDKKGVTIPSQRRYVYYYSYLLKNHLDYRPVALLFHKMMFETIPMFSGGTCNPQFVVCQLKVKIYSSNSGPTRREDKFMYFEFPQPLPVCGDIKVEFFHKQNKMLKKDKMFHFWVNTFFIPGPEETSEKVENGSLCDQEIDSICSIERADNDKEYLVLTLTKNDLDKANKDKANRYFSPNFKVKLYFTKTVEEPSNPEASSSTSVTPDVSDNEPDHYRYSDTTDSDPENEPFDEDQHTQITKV

O=[N+]([O-])c1ccc(Nc2nc(N3CCOCC3)nc(N3CCOCC3)n2)cc1 [MHY1485, 4,6-Di-4-morpholinyl-N-(4-nitrophenyl)-1,3,5-triazin-2-amine]
phospho-mTOR levels [1]: increased
phosphorylation of S6K1 [1]: increased
phosphorylation of rpS6 [1]: increased
ovarian weights ([2]; 1-10 μM, FIG. 1B): dose-dependent increases
follicle growth (histology, follicle counting) ([2]; FIG. 1C, 1D): enhancement of follicle growth from early secondary to the late secondary stage
graft weights ([3]; grafted into adult hosts, daily FSH 5 days, FIG. 2A): increased
antral/preovulatory follicles ([3]; grafts 5 days with FSH, FIG. 2B, 2C): increases in the development of antral/preovulatory follicles
early secondary follicles [3, 7]: decrease of early secondary follicles
primary follicles [3, 7]: increase of primary follicles
development of oocytes after in vitro fertilization ([4]; 10 μM 2 days, graft 5 days, eCG then hCG, oocytes fertilized, FIG. 3A): could develop into blastocysts
outcome of 2-cell embryo transfer into pseudopregnant surrogate mothers ([4]; FIG. 3C): healthy pups were delivered
early embryonic development vs oocytes from day 25 mice (controls) ([4]; percentage of oocytes developing into each embryonic stage, FIG. 3B): comparable early embryonic development

O=C([O-])c1ccccn1.OO.OO.[K+].[K+].[OH-].[V] [dipotassium bisperoxo(picolinato)oxovanadate (V)]
IC50 [5]: 0.031 µM

OO.OO.[K+].[OH-].[V].c1cnc2c(c1)ccc1cccnc12 [potassium bisperoxo (1,10-phenanthroline)oxovanadate (V)]
IC50 [5]: 0.038 µM

dipotassium bisperoxo(5-hydroxypyridine-2-carboxyl)oxovanadate (V)
IC50 [5]: 0.014 µM

monoperoxo(picolinato)oxovanadate(V)
IC50 [6]: 18 µM

potassium bisperoxo(bipyridine)oxovanadate (V)
IC50 [5]: 0.018 µM
